Results from patent US6747035B2, “1-alkyl or 1-cycloalkyltriazolo[4,3-a]quinazolin-5-ones as phosphodiesterase inhibitors” (Warner-Lambert LLC, priority 2001, dated 2004).

tested on: not given; assay: not given; details: dose of 20 mg as a single intake; cited from earlier work

In the case of `COc1ccc([C@]2(C#N)CC[C@@H](C(=O)O)CC2)cc1OC1CCCC1` [Ariflo], the undesirable effects is listed as “significant undesirable effects, such as nausea and vomiting”.

tested on: PDE4; assay: PDE4 enzyme inhibition (IC50), enzyme from cytosolic preparation of U937 cell line; type: biochemical, human; details: inhibitory activity on PDE4; substrate cAMP 0.25 μM; reaction stopped after 10 minutes
Protocol: The capacity of the compounds of formula (I) of the invention to inhibit cyclic nucleotide phosphodiesterases is evaluated by measuring their IC50 (concentration required to inhibit 50% of the enzymatic activity).
The type 4 phosphodiesterases are obtained from a cytosolic preparation extracted from a cell line U937 of human origin according to the method adapted from T. J. Torphy et al., J. Pharm. Exp. Ther. (1992), 263: 1195-1205.
The measurement of the enzymatic activity of the various types of PDE, and in particular the PDE4, is carried out according to a method adapted from W. J. Thompson et al., Advances in Cyclic Nucleotide Research, (1979) Vol. 10: 69-92, ed. G. Brooker et al. Raven Press, NY.
The substrate used is cGMP for PDE1 and PDE5 and cAMP for PDE 3 and PDE 4. The substrate concentration was 0.2 μM for PDE 1, PDE 3 and PDE 5, 0.25 μM for PDE 4.
The enzymatic reaction was stopped after 1 hour for PDE 1, PDE 3 and PDE 5 and 10 minutes for PDE 4.
The following table illustrates the inhibitory activity on PDE4 of some of the compounds of formula (I): […]

Going from `CC(=O)Nc1ccc2c(c1)c(=O)n(Cc1ccccc1)c1nnc(C3CCCC3)n21` [Example 2, 7-acetamido-4-benzyl-1-cyclopentyl-4H-[1,2,4]triazolo[4,3-a]quinazolin-5-one] to `CNc1ccc2c(c1)c(=O)n(Cc1ccccc1)c1nnc(C3CCCC3)n21` [Example 7, 4-benzyl-1-cyclopentyl-7-methylamino-4H-[1,2,4]triazolo[4,3-a]quinazolin-5-one], the IC50 falls from 8.5 µM to 0.075 µM (110-fold). The second is the more potent here.

Compared with `CC(=O)Nc1ccc2c(c1)c(=O)n(Cc1ccccc1)c1nnc(C)n21` [Example 4, 7-acetamido-4-benzyl-1-methyl-4H-[1,2,4]triazolo[4,3-a]quinazolin-5-one], `Cc1nnc2n(Cc3ccccc3)c(=O)c3cc(Br)ccc3n12` [Example 11, 4-benzyl-7-bromo-1-methyl-4H-[1,2,4]triazolo[4,3-a]quinazolin-5-one] is 31-fold lower in IC50: 31 µM for the first, 1 µM for the second.

Going from `CC(=O)N(C)c1ccc2c(c1)c(=O)n(Cc1ccccc1)c1nnc(C3CCCC3)n21` [Example 5, 4-benzyl-1-cyclopentyl-7-(N-methylacetamido)-4H-[1,2,4]triazolo[4,3-a]quinazolin-5-one] to `CC(=O)N(C)c1ccc2c(c1)c(=O)n(Cc1ccc(C#N)cc1)c1nnc(C3CCCC3)n21` [Example 8, 4-(4-cyanobenzyl)-1-cyclopentyl-7-(N-methylacetamido)-4H-[1,2,4]triazolo[4,3-a]quinazolin-5-one], the IC50 falls from 2.7 µM to 1.3 µM (2.1-fold). The second is the more potent here.

Going from `CNc1ccc2c(c1)c(=O)n(Cc1ccc(C#N)cc1)c1nnc(C3CCCC3)n21` [Example 9, 4-(4-cyanobenzyl)-1-cyclopentyl-7-(N-methylamino)-4H-[1,2,4]triazolo[4,3-a]quinazolin-5-one] to `O=c1c2cc(Br)ccc2n2c(C3CCCC3)nnc2n1Cc1ccccc1` [Example 10, 4-benzyl-7-bromo-1-cyclopentyl-4H-[1,2,4]triazolo[4,3-a]quinazolin-5-one], the IC50 rises from 0.002 µM to 0.061 µM (30-fold). The first is the more potent here.
